ChEMBL document CHEMBL4619704, “Structural determinants of affinity and selectivity in the binding of inhibitors to histone deacetylase 6” (Bioorg Med Chem Lett, 2020)
One block for each compound: values may come before it.

Tests used:
[1] = biological target: T1, Protein deacetylase HDAC6 (Homo sapiens, UniProt Q9UBN7); assay: Inhibition of human HDAC6 (unknown origin)
T1 sequence (Q9UBN7 whole entry): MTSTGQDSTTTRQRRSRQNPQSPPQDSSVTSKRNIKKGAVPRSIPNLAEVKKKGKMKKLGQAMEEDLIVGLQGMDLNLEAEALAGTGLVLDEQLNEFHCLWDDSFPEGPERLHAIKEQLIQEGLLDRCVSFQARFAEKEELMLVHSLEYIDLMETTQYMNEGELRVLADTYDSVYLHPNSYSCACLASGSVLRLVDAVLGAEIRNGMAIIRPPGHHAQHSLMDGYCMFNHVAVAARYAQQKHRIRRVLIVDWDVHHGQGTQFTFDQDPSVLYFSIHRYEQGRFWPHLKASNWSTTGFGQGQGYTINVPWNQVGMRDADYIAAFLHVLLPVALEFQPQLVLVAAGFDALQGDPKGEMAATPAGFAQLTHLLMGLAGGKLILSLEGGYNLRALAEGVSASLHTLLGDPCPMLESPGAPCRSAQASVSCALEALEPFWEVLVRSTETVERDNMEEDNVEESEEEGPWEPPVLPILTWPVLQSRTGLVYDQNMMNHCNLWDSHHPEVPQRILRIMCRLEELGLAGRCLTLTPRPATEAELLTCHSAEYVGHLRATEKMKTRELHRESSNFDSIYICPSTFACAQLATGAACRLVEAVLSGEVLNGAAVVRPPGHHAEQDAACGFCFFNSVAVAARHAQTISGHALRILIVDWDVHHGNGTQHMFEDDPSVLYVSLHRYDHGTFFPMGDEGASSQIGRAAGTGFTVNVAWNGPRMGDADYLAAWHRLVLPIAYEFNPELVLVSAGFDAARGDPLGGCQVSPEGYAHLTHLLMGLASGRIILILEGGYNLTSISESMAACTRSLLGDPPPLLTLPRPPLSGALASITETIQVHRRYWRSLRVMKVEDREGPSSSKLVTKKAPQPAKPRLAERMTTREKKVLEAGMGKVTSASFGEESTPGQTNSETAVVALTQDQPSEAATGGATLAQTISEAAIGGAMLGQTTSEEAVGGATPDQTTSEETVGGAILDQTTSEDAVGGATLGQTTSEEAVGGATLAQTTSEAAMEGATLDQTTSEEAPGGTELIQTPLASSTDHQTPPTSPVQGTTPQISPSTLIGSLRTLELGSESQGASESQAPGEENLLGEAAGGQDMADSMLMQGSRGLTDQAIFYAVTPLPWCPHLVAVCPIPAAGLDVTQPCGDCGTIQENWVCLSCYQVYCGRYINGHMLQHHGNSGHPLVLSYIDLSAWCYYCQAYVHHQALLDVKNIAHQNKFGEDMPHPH

Histone deacetylase 1 [2] = biological target: T2, Histone deacetylase 1 (Homo sapiens, UniProt Q13547); assay: Inhibition of HDAC1 (unknown origin)
[3] = biological target: T1, Protein deacetylase HDAC6; assay: Inhibition of HDAC6 (unknown origin) using acetyl-lysine tripeptide as substrate preincubated for 24 hrs followed by substrate addition and measured after 30 mins by microtiter plate reader analysis
Histone deacetylase 1 [4] = biological target: T2, Histone deacetylase 1; assay: Inhibition of C-terminal Flag-tagged HDAC1 (unknown origin) expressed in HEK293 cells or Sf21 cells using Ac-NH-GGK(Ac)-AMC peptide as substrate measured after 180 mins by fluorescence based assay
Histone deacetylase 1 [5] = biological target: T2, Histone deacetylase 1; assay: Inhibition of C-terminal Flag-tagged HDAC1 (unknown origin) expressed in HEK293 cells or Sf21 cells using Ac-RHK(Ac)K(Ac)-AMC peptide as substrate measured after 180 mins by fluorescence based assay

T2 sequence (Q13547 whole entry): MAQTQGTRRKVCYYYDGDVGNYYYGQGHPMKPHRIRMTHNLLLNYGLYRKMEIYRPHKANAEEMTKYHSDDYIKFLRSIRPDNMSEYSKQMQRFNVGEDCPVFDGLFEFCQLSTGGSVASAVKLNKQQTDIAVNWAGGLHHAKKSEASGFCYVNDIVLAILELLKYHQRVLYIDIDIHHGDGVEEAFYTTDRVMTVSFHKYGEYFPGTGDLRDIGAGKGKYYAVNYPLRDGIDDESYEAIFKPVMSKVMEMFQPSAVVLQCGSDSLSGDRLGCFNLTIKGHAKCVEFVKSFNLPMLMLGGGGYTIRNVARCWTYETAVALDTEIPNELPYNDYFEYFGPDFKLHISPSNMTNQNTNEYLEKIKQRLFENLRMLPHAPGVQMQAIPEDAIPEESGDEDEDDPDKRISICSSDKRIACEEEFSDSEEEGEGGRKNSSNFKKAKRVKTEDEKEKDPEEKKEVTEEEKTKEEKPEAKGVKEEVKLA

IC50 [1]: 1400 nM
Structure (SMILES): NCCCNCCCCCC(=O)C(F)(F)F

IC50 (Histone deacetylase 1 [2]): 780 nM | IC50 [3]: 3 nM
Structure (SMILES): O=C(NO)c1cnc(NC2(c3ccccc3)CCC(F)(F)CC2)nc1

IC50 (Histone deacetylase 1 [4]): 43 nM | IC50 (Histone deacetylase 1 [5]): 877 nM
Structure (SMILES): CN(C)Cc1ccc(S(=O)(=O)n2ccc(/C=C/C(=O)NO)c2)cc1 [RESMINOSTAT]
